The test system of one test is F. subglutinans. Nature of the test: Agar test: seed contamination and mycelium growth on artificially infected corn seeds. The conditions noted are these: corn cv. Magister; for FUSSUB Activity Observed / FUSSUB Contaminated Seeds / FUSSUB Mycelium Growth: after 6 days. The test is classed as cell-based, Fusarium subglutinans. On the procedure: (§1) An agar test is performed to evaluate the effect of seed treatments with fludioxonil (2.5 g/100 kg seed)+mefenoxam (1.0 g/100 kg seed), thiabendazole at 10, 15 and 20 g/100 kg seed and the corresponding mixtures of all three components on seed health and viability of corn. Seed lots of corn cv. Magister, is infected artificially with either F. proliferatum or F. subglutinans, are used.
(§2) Czapek-Dox medium (OXOID) is prepared according to manufacturer's recipe: 45.4 g agar in 1 l aqua bidest., autoclaved for 15 min at 121° C., and is cooled down to 55° C. 15 ml medium is poured into each petridish (Ø 10 cm) and is allowed to cool.
(§3) 10 seeds are placed on the surface of the agar. 5 replicates per treatment are done. Petridishes are placed in an incubator at 20° C. under NUV-light (12 h a day). The number of seeds where Fusarium spp. grew out on the agar is rated after an incubation period of 6 days.
(§4) • Mefenoxam (1.0 g ai/100 kg seed)+fludioxonil (2.5 g ai/100 kg seed). • Thiabendazole at 10, 15 and 20 g ai/100 kg seed. • Mefenoxam (1.0 g ai/100 kg seed)+fludioxonil (2.5 g ai/100 kg seed)+thiabendazole (at 10, 15 or 20 g ai/100 kg seed).
(§5) For combined treatments mefenoxam+fludioxonil are applied first on the seeds as a combined formulation and after drying the second application on the seeds with thiabendazole is performed.

Another test concerns F. proliferatum. The test is described as above. The conditions noted are these: corn cv. Magister, after 6 days. The test is classed as cell-based, Fusarium proliferatum. How it is done: as §1, §2, §3, §4, §5
[1] abbreviates: thiabendazole 10 g ai/100 kg seed (mixture: plus mefenoxam 1.0 g + fludioxonil 2.5 g ai/100 kg seed).
The mark [2] stands for this setting: thiabendazole 15 g ai/100 kg seed (mixture: plus mefenoxam 1.0 g + fludioxonil 2.5 g ai/100 kg seed).
The mark [3] stands for this setting: thiabendazole 20 g ai/100 kg seed (mixture: plus mefenoxam 1.0 g + fludioxonil 2.5 g ai/100 kg seed).

Turning to `c1ccc2[nH]c(-c3cscn3)nc2c1` [Thiabendazole, thiabendazole], the “FUSSUB Activity Observed” value was 32% in the test with F. subglutinans (setting [1]), 60% in the test with F. subglutinans (setting [2]) and 91% with F. subglutinans (setting [3]). For the same compound, the figures for the “FUSSUB Contaminated Seeds” value in the test with F. subglutinans (setting [1]), in the test with F. subglutinans (setting [2]) and with F. subglutinans (setting [3]) were 94%, 100% and 52%, respectively. For the same compound, the “FUSSUB Mycelium Growth” value with F. subglutinans (setting [1]) is listed as 68%; with F. subglutinans (setting [2]), 40%; in the test with F. subglutinans (setting [3]), 9%. The “Mycelium growth, dose response (in words)” value with F. subglutinans (thiabendazole at 10, 15 and 20 g ai/100 kg seed) is given as “linear dose response”. Also, the “FUSPRO Activity Observed” value in the test on F. proliferatum (setting [1]) is 40%. In addition, the “FUSPRO Contaminated Seeds” value in the test with F. proliferatum (setting [1]) is 62%; in the test with F. proliferatum (setting [2]), 44%; with F. proliferatum (setting [3]), 40%; in the test with F. proliferatum (thiabendazole 20 g ai/100 kg seed (mixture: plus mefenoxam 1.0 g + fludioxonil 2.5 g ai/100 kg seed), listed as thiabendazole), “reduces the number of Fusarium infected seeds”. Further, the “FUSPRO Mycelium Growth” value in the test with F. proliferatum (setting [1]) is around 60%.
